Measured values published in US9193954B2, “Methods and compositions for mesenchymal stem cell proliferation” (priority 2011, dated 2015).

How the values were obtained:
Format in all cases: cell-based, human
[1] = system: markers of undifferentiated stem cells, Sox2, Nanog, and Oct4; test: RT-PCR of Sox2, Nanog, Oct4 in two-dimensionally cultured BIO-treated hMSCs, normalized to β-actin
Experimental: (§1) RT-PCR was used to assess gene expression of hMSCs over time. At days: 0 (before BIO treatment), 1, 3, 6, 19, 29, 34, 37, and 41, samples were lysed and total RNA was isolated (ENZA Total RNA Kit, Omega). Reverse transcription was performed using the iScript cDNA Synthesis Kit (Bio-Rad). The reverse transcription reaction was incubated at 25° C. for 5 min, 42° C. for 30 min, and terminated at 85° C. for 5 min. PCR was performed using a CFX96 Real-Time PCR System (Bio-Rad), monitoring sybrgreen products (SsoFastEvaGreen Master Mix, Bio-Rad). Primers for β-actin, sex determining region Y-box 2 (Sox2), Nanog homobox (Nanog), and octamer-binding transcription factor 4 (Oct4), core-binding factor subunit alpha-1 (Cbfa1, also known as Runx2), sex determining region Y-box 9 (Sox9), and peroxisome proliferator-activated receptor gamma (PPARγ) were used (Table 2). The PCR parameters used were as follows: hold at 95° C. for 5 min, followed by 40 cycles of: 95° C. for 15 sec denaturation, 60° C. (β-actin, Sox2, Sox9), or 57° C. (Nanog, Oct4, Cbfa1), or 55° C. (PPARγ) for 60 sec annealing, and 72° C. for 20 sec extension. Threshold cycle (CT) analysis was used to quantify PCR products normalized to the cellular housekeeping gene β-actin. Relative gene quantification was performed using the Pfaffl Method, taking into account the variation between primer efficiencies.
To more closely examine BIO's effects on hMSCs gene expression profiles for the markers of undifferentiated stem cells sex determining region Y-box 2 (Sox2), Nanog homobox (Nanog), and octamer-binding transcription factor 4 (Oct4) were monitored and normalized to the housekeeping gene β-actin. […] RNA was collected just before, and 1, 3, 6, 19, 27, 34, 37, and 41 days after the BIO treatment Results were quantified over time and again, normalized to both the housekeeping gene β-actin and untreated controls (0 μM BIO), and the results are shown in FIG. 5.

[2] = system: hMSCs; test: Media induced differentiation of BIO-treated hMSCs (histology and Cbfa1, Sox9, PPARγ expression)
Experimental: Dev Cell. […] After 24 hrs cell media was replaced and cells were allowed to proliferate over three weeks. After three weeks BIO-treated hMSCs were cultured for three weeks in standard differentiation-inducing media (FIG. 6a). For osteogenic differentiation hMSCs were grown in normal growth media with osteogenic supplements (100 nM dexamethasone, 10 mM β-glycerophosphate, 50 μM ascorbic acid-2-phosphate). […] Differentiated two-dimensional cell cultures were fixed in 24-well tissue culture plates for 48 hrs in 4% paraformaldehyde and the monolayers were stained for mineralization (von Kossa, osteogenic), or the presence of lipid droplets (oil red o, adipogenic). Undifferentiated cultures were also stained as negative controls. Images were taken on a Motic AE20 inverted light microscope using a Canon EOS Rebel T2i with an eyepiece modification.
For chondrogenic differentiation, hMSCs were seeded at a density of 5,000 cell/cm^2 in T-75 tissue culture flasks, allowed to become adherent, and treated with BIO containing growth media for 24 hrs. After 24 hrs, cell media was replaced and cells were allowed to proliferate over three weeks (FIG. 6a). […] Pellet cultures were fixed for 48 hrs in 4% paraformaldehyde, cryosectioned, and stained for glycosaminoglycan production (toluidine blue, chondrogenic). Stained sections were imaged as described above.
as §1

[3] = system: hMSCs; test: alamarBlue metabolic assay of hMSC proliferation after BIO dosing (Example 1); details: for effect on hMSC population (alamarBlue): 24 hr dosing
Experimental: FIG. 1. Proliferative effect of BIO after 24 hr dosing; 0 μM (-□-, grey squares), 2 μM (-∘-, open circles), 5 μM (-▴-, black triangles), 10 μM (-X-, black crosses). Proliferation was assessed using alamarBlue metabolic assay. Error bars shown are standard error (n=3).
The small molecule GSK3β inhibitor 6-bromoindirubin-3′-oxime was synthesized as previously described (Polychronopoulos et al., J Med Chem. 2004; 47(4):935-46). It is also commercially available (such as from Sigma). The molecule was solubilized in dimethyl sulfoxide (DMSO) to specified concentrations. hMSCs were plated at a density of 5,000 cell/cm2 in 24-well tissue culture plates. Cells were allowed to become adherent for a period of 24 hrs before BIO was introduced. 10 μL of BIO in DMSO were added to 1 mL of culture media so that the final concentrations of 2, 5, and 10 μM were achieved. […] Culture continued over 33 days with media being replaced every three days. An alamarBlue cell viability assay was performed on days: −1 (before BIO treatment), 0, 4, 8, 12, 14, 17, 23, 26, 28, and 33. Cell population was normalized to alamarBlue readings after the initial period of 24 hr BIO dosing.

[4] = 5 μM BIO, adipogenic-differentiated hMSCs
[5] = 5 μM BIO, osteogenic differentiated hMSCs

## O=C1Nc2cc(Br)ccc2/C1=C1/Nc2ccccc2/C1=N\O [BIO, 6-bromoindirubin-3′-oxime]
[1]; 2 μM BIO, day 1, 2D
  Nanog gene expression compared to untreated control: 5.4 fold
  Oct4 gene expression compared to untreated control: 5.1 fold
  Sox2 gene expression compared to untreated control: 7.1 fold
[1]; 2 μM BIO, day 3, 2D
  Nanog gene expression compared to untreated control: 1.0 fold
  Oct4 gene expression compared to untreated control: 3.4 fold
  Sox2 gene expression compared to untreated control: 4.4 fold
[1]; 5 μM BIO, day 1, 2D
  Nanog gene expression compared to untreated control: 15.3 fold
  Oct4 gene expression compared to untreated control: 16.9 fold
  Sox2 gene expression compared to untreated control: 96.4 fold
[1]; 5 μM BIO, day 3, 2D
  Nanog gene expression compared to untreated control: 4.8 fold
  Oct4 gene expression compared to untreated control: 9.8 fold
  Sox2 gene expression compared to untreated control: 17.7 fold
[1]; day 1, 2 uM BIO
  increase of Nanog expression relative to untreated controls: 797%
  increase of Oct4 expression relative to untreated controls: 545%
  increase of Sox2 expression relative to untreated controls: 677%
[1]; day 1, 5 uM BIO
  increase of Nanog expression relative to untreated controls: 2247%
  increase of Oct4 expression relative to untreated controls: 1800%
  increase of Sox2 expression relative to untreated controls: 9180%
[1]; day 3, 2 uM BIO
  increase of Nanog expression relative to untreated controls: 71%
  increase of Oct4 expression relative to untreated controls: 263%
  increase of Sox2 expression relative to untreated controls: 312%
[1]; day 3, 5 uM BIO
  increase of Nanog expression relative to untreated controls: 324%
  increase of Oct4 expression relative to untreated controls: 755%
  increase of Sox2 expression relative to untreated controls: 1238%
[2]; 5 μM BIO 24 hrs, 21 days proliferation, 3 weeks differentiation media
  histological analysis of differentiation (von Kossa, toluidine blue, oil red o), BIO-treated versus untreated: uniform mineralization
[2]; [4]
  PPARγ expression over undifferentiated controls: 31.2 fold
  increase in PPARγ expression compared to differentiated non-BIO-treated (0 μM) controls: 5.0 fold
[2]; 5 μM BIO, chondrogenic-differentiated hMSCs, not statistically significant
  Sox9 expression compared with undifferentiated controls: 0.6 fold
[2]; [5]
  Cbfa1 expression over undifferentiated controls: 3.9 fold
  increase in Cbfa1 expression compared to differentiated non-BIO-treated (0 μM) controls: 2.1 fold
[3]; BIO 2-5 μM
  effect on hMSC population (alamarBlue): dose dependent proliferative response
[3]; BIO concentrations below 2 μM
  effect on hMSC population (alamarBlue): did not have a noticeable effect
[3]; continual dosing with BIO, parallel study (data not shown)
  effect of continual dosing on hMSCs: complete cell death by day 5
